Data from patent publication US20250338846A1, “COMPOSITIONS HAVING PESTICIDAL UTILITY AND PROCESSES RELATED THERETO” (CORTEVA AGRISCIENCE, LLC, priority 2022, published 2025).

Assays:
Format in all cases: in vivo
[1] = system: Diamondback Moth (Plutella xylostella, PLUTMA); assay: Bioassay 9: Diamondback Moth, leaves of track-sprayed cabbage plants, mortality and feeding damage scored
Procedure: where X=No. of live nymphs on solvent check plants and Y=No. of live nymphs on treated plants. In Table B2 the “Expected % Control” was calculated using the method described in Colby S. R., Weeds, 1967, 15, 20-22. Bioassay 9: Diamondback Moth (Plutella xylostella, PLUTMA) (DBM).
Stock solutions were prepared with Formula One as well as for each of the active ingredients individually. Test solutions were prepared from the stock solutions. Test solutions were prepared containing Formula One, the individual active ingredients, and mixtures of Formula One with each of the active ingredients. The test solution for Formula One was prepared by adding 500 μL of the stock solution to a 25 mL glass vial, then adding 500 μL of a 9:1 mixture of acetone: water. The individual active ingredients were prepared by adding 500 μL of stock solution to a 25 mL glass vial, then adding 500 μL of a 9:1 mixture of acetone: water. The test solutions containing mixtures of Formula One and the individual active ingredients were prepared by adding 500 μL of the active ingredient stock solution to a 25 mL glass vial, followed by 500 μL of the Formula One stock solution, creating a test solution containing 4000 ppm Formula One and 0.4% (w/v) of the active ingredient. Each test solution was serially diluted to create desired doses of test solutions (0.4% (w/v), 0.04% (w/v), 0.004% (w/v), 0.0004% (w/v), 0.00004% (w/v), and 0.000004% (w/v)). In test solutions containing mixtures of Formula One and the active ingredients, the active ingredients were diluted as described above, but the Concentration of Formula One was held constant (0.4% (w/v)). The highest dose test solution (0.4% (w/v)) was discarded, leaving 5 test solution concentrations used in the test.
Cabbage seedlings, grown in 3-inch pots with 2-3 small (3-5 centimeter (cm)) true leaves, were used as test substrate. Cabbage plants were sprayed with desired concentrations of Formula One and active ingredients or their mixtures using a track Sprayer. Reference plants (solvent check) were sprayed with diluent only (0.025% Tween® 20 and 10% acetone:methanol (1:1) in water). The sprayed cabbage plants were allowed to dry for 1 hour, after which leaves from each treatment were placed in a cell of a plastic tray. One leaf per cell and 8 replicates for each cell. The tested doses ranged between 0.000001% (w/v) to 0.0002% (w/v). One 2nd instar DBM larvae were placed in each cell of the tray and allowed to feed on the cabbage foliage for […] after which the mortality and feeding damage were scored. Test trays were held at approximately 26° C. and ambient relative humidity (RH) prior to grading. The number of live larvae were recorded from each cell and percent control was measured using Abbott's correction formula (W. S. Abbott, J. Econ. Entomol. 18 (1925), pp. 265-267) as follows:
where X=No. of live larvae on solvent check and Y=No. of live larvae on treated diet. In Table B6 the “Expected % Control” was calculated using the method described in Colby S. R., Weeds, 1967, 15, 20-22.

[2] = system: Cotton Aphid (Aphis gossypii, APHIGO); assay: Bioassay 7: Cotton Aphid, foliar spray on infested cotton seedlings, live aphids counted three days after treatment; conditions: AI alone 5 (10^-5) Wt %
Procedure: where X=No. of live larvae on solvent check and Y=No. of live larvae on treated diet. In Table B6 the “Expected % Control” was calculated using the method described in Colby S. R., Weeds, 1967, 15, 20-22. Bioassay 7: Cotton Aphid (Aphis gossypii, APHIGO) (“CA”).
Stock solutions of Formula One and one or more of the active ingredients were prepared at concentrations of 1 mg/mL using a 1:1 mixture of acetone: methanol as a diluent. The stock solutions were prepared with Formula One as well as for each of the active ingredients individually. Test solutions were prepared from the stock solutions. Test solutions were prepared containing Formula One, the individual active ingredients, and mixtures of Formula One with each of the active ingredients. The test solutions for Formula One and the individual active ingredients were prepared by adding 1.5 mL of stock solution to a 30 mL glass vial, then adding 1.5 mL of 1:1 acetone: methanol solvent, followed by the addition of 27 mL water with 0.025% Tween® 20 to create a […]. Each test solution was serially diluted to create desired doses of test solutions ranging from 0.000001 to 0.0025% (w/v). The test solutions were tested against CA using the following procedure: cotton seedlings were grown in 3-inch pots with one true leaf (2-5 cm in diameter) were used as test substrate. The seedlings were infested with 20-50 CA (wingless adult and nymph stages) one day prior to chemical application. Four pots with individual seedlings were used for each treatment. A hand-held aspirator-type sprayer was used for spraying a solution to both sides of […] leaves until runoff. Reference plants (solvent check) were sprayed with the diluent only (0.025% Tween® 20 and 10% acetone:methanol (1:1) in water). Treated plants were held in a holding room for three days at approximately 25° C. and ambient relative humidity (RH about 20% to about 45%) prior to grading. Evaluation was conducted by counting the number of live aphids per plant under a microscope three days after treatment. Percent control was measured using Abbott's correction formula (W. S. Abbott, J. Econ. Entomol. 18 (1925), pp. 265-267) as follows:
where X=No. of live aphids on solvent check plants and Y=No. of live aphids on treated plants. In Table B1 the “Expected % Control” was calculated using the method described in Colby S. R., Weeds, 1967, 15, 20-22. Bioassay 8: Sweet Potato Whitefly (Bemisia tabaci, BEMITA) (“SPW”).

[3] = system: Western Tarnished Plant Bug (Lygus hesperus, LYGUHE); assay: Bioassay 4: Western Tarnished Plant Bug, soaked green bean segments, living nymphs 3 days after application; conditions: AI alone 0.005 % w/v
Procedure: (§1) where X=No. of live nymphs on solvent check leaf discs and Y=No. of live nymphs on treated leaf discs. In Table B3 the “Expected % Control” was calculated using the method described in Colby S. R., Weeds, 1967, 15, 20-22. Bioassay 4: Western Tarnished Plant Bug (Lygus hesperus, LYGUHE) (“WTPB”).
(§2) Stock solutions were prepared with Formula One as well as for each of the active ingredients individually. Test solutions were prepared from the stock solutions. Test solutions were prepared containing Formula One, the individual active ingredients, and mixtures of Formula One with each of the active ingredients. The test solution for Formula One was prepared by adding 500 μL of the stock solution to a 25 mL glass vial, then adding 500 μL of acetone, followed by the addition of 9 mL water with 0.025% Tween®) 20 to create a 0.04% (w/v) solution. The test solutions of the individual active ingredients were prepared by adding 500 μL of stock solution to a 25 mL glass vial, then adding 500 μL of acetone, followed by the addition of 9 mL water with 0.025% Tween®) 20 to create a 0.005% (w/v) solution. The test solutions containing mixtures of Formula One and the individual active ingredients were prepared by adding 500 μL of the active ingredient stock solution to a 25 mL glass vial, followed by 500 μL of the Formula One stock solution, then by the addition of 9 mL water with 0.025% Tween®) 20 to create a test solution containing 0.04% (w/v) Formula One and 0.005% (w/v) of the active ingredient. Each test solution was serially diluted to create desired doses of test solutions (0.005% (w/v), 0.00125% (w/v), 0.0003125% (w/v), 0.000078% (w/v), and 0.0000195% (w/v)). In test solutions containing mixtures of Formula One and the active ingredients, the active ingredients were diluted as described above, but the Concentration of Formula One was held constant (0.04% (w/v)).
The test solutions were tested against WTPB using the following procedure: Fresh green beans were cut into segments approximately 1.5 inches long. Four bean segments were added to each 25 mL vial containing the test solutions and soaked for approximately 15 minutes. After soaking, a single bean fragment was removed and placed into a single well of a 32-well rearing tray (Frontier Agricultural Sciences™), on top of a round filter paper disc. A reference treatment (solvent check) was treated with the diluent only. Each treatment was replicated four times and the test treatments were held at approximately 26° C. and ambient relative humidity (RH) prior to grading. Bean segments were allowed to air dry for ˜30 minutes. Three WTPB nymphs were added to and contained in each well with a clear perforated adhesive lid. The total number of living WTPB nymphs was recorded 3 days after application. Scoring was based off the total number of living nymphs out of all four replicates. Percent control was measured using Abbott's correction formula (W. S. Abbott, J. Econ. Entomol. 18 (1925), pp. 265-267) as follows:
X=No. of live nymphs on solvent check and Y=No. of live nymphs on treated bean segments. In Table B4 the “Expected % Control” was calculated using the method described in Colby S. R., Weeds, 1967, 15, 20-22. Bioassay 5: Neotropical Brown Stink Bug (Euschistus heros, EUSCHE) (“BSB”).

[4] = system: Western Flower Thrips (Frankliniella occidentalis, FRANOC); assay: Bioassay 3: Western Flower Thrips, cotton leaf disc dip, live WFT counted 3 days after treatment; conditions: AI alone 0.0003125 % w/v
Procedure: as §2, with “Stock solutions of Formula One and various active ingredients were prepared initially at a concentration of 8 mg/ml for Formula One and 1 mg/mL for the active ingredients, respectively, using acetone as a diluent. Stock” for “Stock”
The test solutions were tested against WFT using the following procedure: Leaf discs (2.7 cm in diameter) were cut from the true leaves of cotton plants. Leaf discs were dipped into the test solutions and shaken to ensure complete coverage of the leaf disc and then placed in Millipore®) PetriSlides containing a filter paper disc. Treated leaf discs were air dried for approximately 1 hour. Each leaf disc was infested with 5 WFT (9-10-day old nymphs) by placement on each leaf disc, and the PetriSlides were capped to prevent escape. Each treatment was replicated three times and the test treatments were held at approximately 26° C. and ambient relative humidity (RH) prior to grading. Reference discs (solvent check) were treated with the diluent only. Evaluation was conducted by counting the number of live WFT under magnification 3 days after treatment. Percent control was measured using Abbott's correction formula (W. S. Abbott, J. Econ. Entomol. 18 (1925), pp. 265-267) as follows:
as §1

| Compound | Average % Control AI ([1]; AI alone 5 (10^-5) Wt %) [%] | Average % Control AI ([1]; AI alone 10 (10^-5) Wt %) [%] | Average % Control AI ([1]; AI alone 20 (10^-5) Wt %) [%] | Average % Control A1 [2] [%] | Average % Control AI [3] [%] | Average % Control AI [4] [%] |
| --- | --- | --- | --- | --- | --- | --- |
| CC1(C)C(C=C(Cl)Cl)C1C(=O)OC(C#N)c1ccc(F)c(Oc2ccccc2)c1 (stereo not drawn) [Beta-Cyfluthrin] | 13.64 | 27.27 | 72.73 | 21.34 | – | – |
| O=c1c(-c2cccc(C(F)(F)F)c2)c([O-])[n+](Cc2cncnc2)c2ccccn12 [Triflumezopyrim] | – | – | – | – | 9 | 7 |
